Reference: patent US5932410A, “Assay for the detection of proteases” (Commonwealth Scientific and Industrial Research …, priority 1994, dated 1999)
Where a SMILES comes first, the peptide text is derived from it. The star is where a group is joined. Cbz = O=C(OCc1ccccc1)*

How the values were obtained:
Type in all cases: biochemical
α-Lytic protease = α-Lytic protease (Lysobacter enzymogenes, UniProt P00778); assay: Esterase assay, α-lytic protease; details: Z-AX-OMe substrate; for Esterase rate, α-Lytic protease: X = P1 residue, rates approximately ± 10%; for % activity, α-Lytic protease: normalised to alanine
Chain of α-Lytic protease (P00778 25-397 limits assumed): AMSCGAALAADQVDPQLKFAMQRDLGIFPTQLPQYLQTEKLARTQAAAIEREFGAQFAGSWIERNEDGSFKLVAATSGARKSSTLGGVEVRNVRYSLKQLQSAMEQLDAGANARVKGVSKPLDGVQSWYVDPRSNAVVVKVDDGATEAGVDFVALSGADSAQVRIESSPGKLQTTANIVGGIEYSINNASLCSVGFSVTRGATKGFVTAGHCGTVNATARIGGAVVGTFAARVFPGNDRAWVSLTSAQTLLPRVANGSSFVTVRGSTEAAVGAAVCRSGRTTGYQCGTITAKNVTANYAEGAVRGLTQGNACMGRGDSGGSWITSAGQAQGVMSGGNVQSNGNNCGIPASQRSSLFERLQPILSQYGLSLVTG
Excerpt: (§1) Advantage was taken of this activity to develop an "esterase" assay which uses a pH indicator to visualise the hydrogen ion release caused by the action of proteases on peptide-ester substrates. A series of twenty compounds of the form, carbobenzoxy alanyl-X-methyl ester (Z-AX-OMe) were synthesised where "X" is one of the naturally occurring amino acids. These substrates were used in a 96 well microtitre plate assay to screen each mutant enzyme for activity and specificity. The reactions were followed visually or quantified using a standard ELISA plate reader. The esterase assay, using trypsin as a test enzyme and Z-Ala-Arg-OMe as substrate, was more sensitive as than traditional trypsin substrates (three times the rate obtained with benzoyl arginine ethyl aster and twenty times the rate of benzoyl arginine p-nitroanilide) (Whittaker et al., Analytical Biochemistry, 220, 238-243, 1994).
(§2) The present inventors produced a panel of substrates carbobenzoxy alanyl-X-methyl eater (Z-AX-OMe) where X is one of the naturally occurring amino acids. The reactivity of these substrates with a number of serine proteases is set out in Table 1 and FIG. 1.
(§3) Rates are A580 change/min./mg protease. Rates are also shown as a […]

Subtilisin = assay: Esterase assay, subtilisin; details: Z-AX-OMe substrate; for Esterase rate, Subtilisin: X = P1 residue, rates approximately ± 10%; for % of maximum activity, Subtilisin: percentage of the maximum activity
Excerpt: as §1, §2, §3

Chymotrypsin = Chymotrypsin (Bos taurus, UniProt P00766); assay: Esterase assay, chymotrypsin; details: Z-AX-OMe substrate; for Esterase rate, Chymotrypsin: X = P1 residue, rates approximately ± 10%; for % of maximum activity, Chymotrypsin: percentage of the maximum activity
Excerpt: as §1, §2, §3

Trypsin = assay: Esterase assay, trypsin; details: Z-AX-OMe substrate; for Esterase rate, Trypsin: X = P1 residue, rates approximately ± 10%; for % of maximum activity, Trypsin: percentage of the maximum activity
Excerpt: as §1, §2, §3

Proteinase K = Proteinase K (Parengyodontium album, UniProt P06873); assay: Esterase assay, proteinase K; details: Z-AX-OMe substrate; for Esterase rate, Proteinase K: X = P1 residue, rates approximately ± 10%; for % of maximum activity, Proteinase K: percentage of the maximum activity
Chain of Proteinase K (P06873 106-384): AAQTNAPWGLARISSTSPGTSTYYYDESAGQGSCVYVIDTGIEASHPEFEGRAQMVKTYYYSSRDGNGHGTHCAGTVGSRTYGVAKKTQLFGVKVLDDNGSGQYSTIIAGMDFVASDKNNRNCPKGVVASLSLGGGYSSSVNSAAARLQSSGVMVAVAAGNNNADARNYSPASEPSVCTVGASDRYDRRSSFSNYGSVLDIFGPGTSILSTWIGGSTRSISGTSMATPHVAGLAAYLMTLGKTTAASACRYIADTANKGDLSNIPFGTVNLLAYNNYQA
Excerpt: as §1, §2, §3

Elastase = Elastase (Sus scrofa, UniProt P00772); assay: Esterase assay, elastase; details: Z-AX-OMe substrate; for Esterase rate, Elastase: X = P1 residue, rates approximately ± 10%; for % activity, Elastase: normalised to alanine
Chain of Elastase (P00772 27-266): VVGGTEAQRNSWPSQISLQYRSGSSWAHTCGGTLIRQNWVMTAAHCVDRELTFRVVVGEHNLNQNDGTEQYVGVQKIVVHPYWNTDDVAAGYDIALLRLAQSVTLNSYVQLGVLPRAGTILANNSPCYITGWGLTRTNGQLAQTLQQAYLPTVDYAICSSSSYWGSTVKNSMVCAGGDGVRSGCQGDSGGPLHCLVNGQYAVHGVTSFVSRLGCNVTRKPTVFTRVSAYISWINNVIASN
Excerpt: as §1, §2, §3

Thrombin = Thrombin (Homo sapiens, UniProt P00734); assay: Esterase assay, thrombin; details: Z-AX-OMe substrate; for Esterase rate, Thrombin: X = P1 residue, rates approximately ± 10%; for % of maximum activity, Thrombin: percentage of the maximum activity
Excerpt: as §1, §2, §3

Structure (SMILES): COC(=O)[C@@H]1CCCN1C(=O)[C@H](C)NC(=O)OCc1ccccc1 [Pro] (Cbz-Ala-Pro-OMe)
- Esterase rate, α-Lytic protease (α-Lytic protease): 0 A580 change/min./mg protease
- % activity, α-Lytic protease (α-Lytic protease): 0%
- Esterase rate, Subtilisin (Subtilisin): trace
- Esterase rate, Chymotrypsin (Chymotrypsin): 0 A580 change/min./mg protease
- % of maximum activity, Chymotrypsin (Chymotrypsin): 0%
- Esterase rate, Trypsin (Trypsin): 0 A580 change/min./mg protease
- % of maximum activity, Trypsin (Trypsin): 0%
- Esterase rate, Proteinase K (Proteinase K): trace
- Esterase rate, Elastase (Elastase): 0 A580 change/min./mg protease
- % activity, Elastase (Elastase): 0%
- Esterase rate, Thrombin (Thrombin): 0 A580 change/min./mg protease
- % of maximum activity, Thrombin (Thrombin): 0%

Structure (SMILES): COC(=O)CNC(=O)[C@H](C)NC(=O)OCc1ccccc1 [Gly] (Cbz-Ala-Gly-OMe)
- Esterase rate, α-Lytic protease (α-Lytic protease): 0 A580 change/min./mg protease
- % activity, α-Lytic protease (α-Lytic protease): 0%
- Esterase rate, Subtilisin (Subtilisin): 22 A580 change/min./mg protease
- % of maximum activity, Subtilisin (Subtilisin): 1.0%
- Esterase rate, Chymotrypsin (Chymotrypsin): 0 A580 change/min./mg protease
- % of maximum activity, Chymotrypsin (Chymotrypsin): 0%
- Esterase rate, Trypsin (Trypsin): 0 A580 change/min./mg protease
- % of maximum activity, Trypsin (Trypsin): 0%
- Esterase rate, Proteinase K (Proteinase K): 58 A580 change/min./mg protease
- % of maximum activity, Proteinase K (Proteinase K): 7.5%
- Esterase rate, Elastase (Elastase): 0 A580 change/min./mg protease
- % activity, Elastase (Elastase): 0%
- Esterase rate, Thrombin (Thrombin): 0 A580 change/min./mg protease
- % of maximum activity, Thrombin (Thrombin): 0%

Structure (SMILES): COC(=O)[C@H](CO)NC(=O)[C@H](C)NC(=O)OCc1ccccc1 [Ser] (Cbz-Ala-Ser-OMe)
- Esterase rate, α-Lytic protease (α-Lytic protease): 0.7 A580 change/min./mg protease
- % activity, α-Lytic protease (α-Lytic protease): 11.3%
- Esterase rate, Subtilisin (Subtilisin): 366 A580 change/min./mg protease
- % of maximum activity, Subtilisin (Subtilisin): 17.0%
- Esterase rate, Chymotrypsin (Chymotrypsin): trace
- Esterase rate, Trypsin (Trypsin): 0 A580 change/min./mg protease
- % of maximum activity, Trypsin (Trypsin): 0%
- Esterase rate, Proteinase K (Proteinase K): 348 A580 change/min./mg protease
- % of maximum activity, Proteinase K (Proteinase K): 44.9%
- Esterase rate, Elastase (Elastase): 0.4 A580 change/min./mg protease
- % activity, Elastase (Elastase): 3.6%
- Esterase rate, Thrombin (Thrombin): 0 A580 change/min./mg protease
- % of maximum activity, Thrombin (Thrombin): 0%

Structure (SMILES): COC(=O)[C@H](CC(=O)O)NC(=O)[C@H](C)NC(=O)OCc1ccccc1 [Asp] (Cbz-Ala-Asp-OMe)
- Esterase rate, α-Lytic protease (α-Lytic protease): 0 A580 change/min./mg protease
- % activity, α-Lytic protease (α-Lytic protease): 0%
- Esterase rate, Subtilisin (Subtilisin): trace
- Esterase rate, Chymotrypsin (Chymotrypsin): 0 A580 change/min./mg protease
- % of maximum activity, Chymotrypsin (Chymotrypsin): 0%
- Esterase rate, Trypsin (Trypsin): 0 A580 change/min./mg protease
- % of maximum activity, Trypsin (Trypsin): 0%
- Esterase rate, Proteinase K (Proteinase K): 18 A580 change/min./mg protease
- % of maximum activity, Proteinase K (Proteinase K): 2.3%
- Esterase rate, Elastase (Elastase): 0 A580 change/min./mg protease
- % activity, Elastase (Elastase): 0%
- Esterase rate, Thrombin (Thrombin): 0 A580 change/min./mg protease
- % of maximum activity, Thrombin (Thrombin): 0%

Structure (SMILES): COC(=O)[C@H](CS)NC(=O)[C@H](C)NC(=O)OCc1ccccc1 [Cys] (Cbz-Ala-Cys-OMe)
- Esterase rate, α-Lytic protease (α-Lytic protease): 8.5 A580 change/min./mg protease
- % activity, α-Lytic protease (α-Lytic protease): 137.1%
- Esterase rate, Subtilisin (Subtilisin): 1251 A580 change/min./mg protease
- % of maximum activity, Subtilisin (Subtilisin): 58.2%
- Esterase rate, Chymotrypsin (Chymotrypsin): 0.4 A580 change/min./mg protease
- % of maximum activity, Chymotrypsin (Chymotrypsin): 0.7%
- Esterase rate, Trypsin (Trypsin): 0 A580 change/min./mg protease
- % of maximum activity, Trypsin (Trypsin): 0%
- Esterase rate, Proteinase K (Proteinase K): 392 A580 change/min./mg protease
- % of maximum activity, Proteinase K (Proteinase K): 50.6%
- Esterase rate, Elastase (Elastase): 86.1 A580 change/min./mg protease
- % activity, Elastase (Elastase): 548.4%
- Esterase rate, Thrombin (Thrombin): 0 A580 change/min./mg protease
- % of maximum activity, Thrombin (Thrombin): 0%

Structure (SMILES): COC(=O)[C@H](CCC(=O)O)NC(=O)[C@H](C)NC(=O)OCc1ccccc1 [Glu] (Cbz-Ala-Glu-OMe)
- Esterase rate, α-Lytic protease (α-Lytic protease): 0 A580 change/min./mg protease
- % activity, α-Lytic protease (α-Lytic protease): 0%
- Esterase rate, Subtilisin (Subtilisin): 83 A580 change/min./mg protease
- % of maximum activity, Subtilisin (Subtilisin): 3.9%
- Esterase rate, Chymotrypsin (Chymotrypsin): 0 A580 change/min./mg protease
- % of maximum activity, Chymotrypsin (Chymotrypsin): 0%
- Esterase rate, Trypsin (Trypsin): 0 A580 change/min./mg protease
- % of maximum activity, Trypsin (Trypsin): 0%
- Esterase rate, Proteinase K (Proteinase K): 97 A580 change/min./mg protease
- % of maximum activity, Proteinase K (Proteinase K): 12.5%
- Esterase rate, Elastase (Elastase): 0 A580 change/min./mg protease
- % activity, Elastase (Elastase): 0%
- Esterase rate, Thrombin (Thrombin): 0 A580 change/min./mg protease
- % of maximum activity, Thrombin (Thrombin): 0%

Structure (SMILES): COC(=O)[C@H](Cc1ccccc1)NC(=O)[C@H](C)NC(=O)OCc1ccccc1 [Phe]
- Esterase rate, α-Lytic protease (α-Lytic protease): 0 A580 change/min./mg protease
- % activity, α-Lytic protease (α-Lytic protease): 0%
- Esterase rate, Subtilisin (Subtilisin): 998 A580 change/min./mg protease
- % of maximum activity, Subtilisin (Subtilisin): 46.0%
- Esterase rate, Chymotrypsin (Chymotrypsin): 37.8 A580 change/min./mg protease
- % of maximum activity, Chymotrypsin (Chymotrypsin): 68.5%
- Esterase rate, Trypsin (Trypsin): 2.9 A580 change/min./mg protease
- % of maximum activity, Trypsin (Trypsin): 0.8%
- Esterase rate, Proteinase K (Proteinase K): 342 A580 change/min./mg protease
- % of maximum activity, Proteinase K (Proteinase K): 44.1%
- Esterase rate, Elastase (Elastase): 0 A580 change/min./mg protease
- % activity, Elastase (Elastase): 0%
- Esterase rate, Thrombin (Thrombin): 0 A580 change/min./mg protease
- % of maximum activity, Thrombin (Thrombin): 0%

Structure (SMILES): COC(=O)[C@H](CC(C)C)NC(=O)[C@H](C)NC(=O)OCc1ccccc1 [Leu] (Cbz-Ala-Leu-OMe)
- Esterase rate, α-Lytic protease (α-Lytic protease): 0 A580 change/min./mg protease
- % activity, α-Lytic protease (α-Lytic protease): 0%
- Esterase rate, Subtilisin (Subtilisin): 1329 A580 change/min./mg protease
- % of maximum activity, Subtilisin (Subtilisin): 61.8%
- Esterase rate, Chymotrypsin (Chymotrypsin): 2.4 A580 change/min./mg protease
- % of maximum activity, Chymotrypsin (Chymotrypsin): 4.3%
- Esterase rate, Trypsin (Trypsin): 0 A580 change/min./mg protease
- % of maximum activity, Trypsin (Trypsin): 0%
- Esterase rate, Proteinase K (Proteinase K): 240 A580 change/min./mg protease
- % of maximum activity, Proteinase K (Proteinase K): 31.0%
- Esterase rate, Elastase (Elastase): 3.4 A580 change/min./mg protease
- % activity, Elastase (Elastase): 21.7%
- Esterase rate, Thrombin (Thrombin): 0 A580 change/min./mg protease
- % of maximum activity, Thrombin (Thrombin): 0%

Structure (SMILES): COC(=O)[C@H](Cc1c[nH]c2ccccc12)NC(=O)[C@H](C)NC(=O)OCc1ccccc1 [Trp] (Cbz-Ala-Trp-OMe)
- Esterase rate, α-Lytic protease (α-Lytic protease): 0 A580 change/min./mg protease
- % activity, α-Lytic protease (α-Lytic protease): 0%
- Esterase rate, Subtilisin (Subtilisin): 216 A580 change/min./mg protease
- % of maximum activity, Subtilisin (Subtilisin): 10.1%
- Esterase rate, Chymotrypsin (Chymotrypsin): 27.2 A580 change/min./mg protease
- % of maximum activity, Chymotrypsin (Chymotrypsin): 49.3%
- Esterase rate, Trypsin (Trypsin): trace
- Esterase rate, Proteinase K (Proteinase K): 353 A580 change/min./mg protease
- % of maximum activity, Proteinase K (Proteinase K): 45.5%
- Esterase rate, Elastase (Elastase): 0 A580 change/min./mg protease
- % activity, Elastase (Elastase): 0%
- Esterase rate, Thrombin (Thrombin): 0 A580 change/min./mg protease
- % of maximum activity, Thrombin (Thrombin): 0%

Structure (SMILES): COC(=O)[C@H](CC(N)=O)NC(=O)[C@H](C)NC(=O)OCc1ccccc1 [Asn] (Cbz-Ala-Asn-OMe)
- Esterase rate, α-Lytic protease (α-Lytic protease): 0 A580 change/min./mg protease
- % activity, α-Lytic protease (α-Lytic protease): 0%
- Esterase rate, Subtilisin (Subtilisin): 244 A580 change/min./mg protease
- % of maximum activity, Subtilisin (Subtilisin): 11.4%
- Esterase rate, Chymotrypsin (Chymotrypsin): 0.3 A580 change/min./mg protease
- % of maximum activity, Chymotrypsin (Chymotrypsin): 0.5%
- Esterase rate, Trypsin (Trypsin): 0 A580 change/min./mg protease
- % of maximum activity, Trypsin (Trypsin): 0%
- Esterase rate, Proteinase K (Proteinase K): 137 A580 change/min./mg protease
- % of maximum activity, Proteinase K (Proteinase K): 17.7%
- Esterase rate, Elastase (Elastase): 0 A580 change/min./mg protease
- % activity, Elastase (Elastase): 0%
- Esterase rate, Thrombin (Thrombin): 0 A580 change/min./mg protease
- % of maximum activity, Thrombin (Thrombin): 0%

Structure (SMILES): COC(=O)[C@H](Cc1cnc[nH]1)NC(=O)[C@H](C)NC(=O)OCc1ccccc1 [His] (Cbz-Ala-His-OMe)
- Esterase rate, α-Lytic protease (α-Lytic protease): 0 A580 change/min./mg protease
- % activity, α-Lytic protease (α-Lytic protease): 0%
- Esterase rate, Subtilisin (Subtilisin): 249 A580 change/min./mg protease
- % of maximum activity, Subtilisin (Subtilisin): 11.6%
- Esterase rate, Chymotrypsin (Chymotrypsin): 1.5 A580 change/min./mg protease
- % of maximum activity, Chymotrypsin (Chymotrypsin): 2.7%
- Esterase rate, Trypsin (Trypsin): 3.0 A580 change/min./mg protease
- % of maximum activity, Trypsin (Trypsin): 0.8%
- Esterase rate, Proteinase K (Proteinase K): 203 A580 change/min./mg protease
- % of maximum activity, Proteinase K (Proteinase K): 26.2%
- Esterase rate, Elastase (Elastase): 0 A580 change/min./mg protease
- % activity, Elastase (Elastase): 0%
- Esterase rate, Thrombin (Thrombin): trace
